The test system of assay [1] is CXCR4-B16 cells. Kind of assay: arrest of CXCR4-B16 cells on VCAM-1/Ig-coated plates under flow. The class given is cell-based, murine. As to conditions: CXCR4-B16 on plates co-coated with VCAM-1/Ig and 1 μg/ml chemokine; 1.5 dynes/cm^2. On the procedure: Cell suspension plates (35 mm, Model # 430588, Corning Inc., NY) were coated with human VCAM-1/IgG chimera (1 μg/ml) overnight at 4° C. in Tris-buffered saline (Maki et al., Immunol. 169:2346-2353 (2002)). Plates were then briefly rinsed with PBS, co-coated with 1 μg/ml of CXCL12, CCL19, or no chemokine in PBS for 2 hr at 4° C., and blocked with 1% BSA/PBS for 1 hr at 4° C. Calcein-acetomethyl (AM)-labeled (Molecular Probes, Eugene, Oreg.) CXCR4-B16 or pLNCX2-B16 cells (2.5×10^5 cells/ml in cDMEM) were injected at 1.5 dynes/cm^2 into a parallel plate flow chamber (Glycotech, Gaithersburg, Md.) that had been placed over the adhesion molecule- and/or chemokine-coated suspension plate.
For dynamic assays on recombinant molecule-coated plates as well as on LMEC, tumor cells were introduced into the chamber under a constant shear stress of 1.5 dynes/cm^2 without allowing cells to settle at any time during the assay. Ten min after flow was initiated, arrested cells were digitally photographed (without flow being decreased) in 4-6 random fields (each field=1.18 mm^2) with excitation at 488 nm and emission at 513 nm using sufficient exposure time (˜1 s) to allow distinction between moving cells, which appeared as dim streaks, and stationary cells. Cells were then enumerated with the software program IPlab (Scanalytics, Fairfax, Va.). […]

Assay [2] relates to CXCR4-B16 cells. As to the kind of experiment: adhesion of CXCR4-B16 cells to resting DMEC in parallel plate flow chamber. The class given is cell-based, murine. To be noted: DMEC exposed to 100 ng/ml chemokine for 15 min; 1.5 dynes/cm^2. As to the method: Prior to interaction with tumor cells, resting confluent DMEC or LMEC were exposed to 100 ng/ml of recombinant CXCL12 or CCL21 for 15 min at 20° C. as described (Cinamon et al., Nat. Immunol. 2: 515-22 (2001)). After unbound chemokine was washed away, calcein-AM-labeled (Molecular Probes, Eugene, Oreg.) CXCR4- or pLNCX2-B16 cells (2.5×10^5/ml in B16 medium) were injected at 1.5 dynes/cm^2 into a parallel plate flow chamber (Glycotech, Gaithersburg, Md.) containing confluent DMEC or LMEC. In some cases, tumor cells were treated with pertussis toxin (PTX, Calbiochem, San Diego, Calif.) at 100 ng/ml for 2 hours at 37° C. to block Gi-protein-coupled signaling. After two min, flow was stopped, which enabled B16 cells to interact with MEC in the absence of shear stress. After 5 min, shear was re-established at 1.5 dynes/cm^2 for up to 2 min in order to detach unbound cells; adherent cells were digitally photographed in 5-6 random fields (each field=1.18 mm^2) with excitation at 488 nm and emission at 513 nm using sufficient exposure time (˜1 s) to allow distinction between non-moving and moving cells (which appeared as dim streaks) (Fitzhugh et al. (2000), supra). Cells were then counted with the software program IPlab (Scanalytics, Fairfax, Va.). […]

“CCL19: an unrelated chemokine used as control”: the Mean adherent cells/field in assay [1] amounted to 17.2 cells/field. Further, in assay [2], the “adherent B16-CXCR4 cells on DMEC (Table 6)” value was 6.8.

These data come from US20040132642A1, “Methods of inhibiting metastasis or growth of a tumor cell” (Government of the U.S.A., represented by the Secretary, …, priority 2002, published 2004).
